From paper PMC10485906, “Development of a Dihydroquinoline–Pyrazoline GluN2C/2D-Selective Negative Allosteric Modulator of the N-Methyl-D-aspartate Receptor” (ACS Chemical Neuroscience, 2023)
Where “and” joins values, the source holds several entries; their conditions need not be identical. Identical values can stand only once. Marks after values point to notes of the source that are not given here.

Experiments:
Format in all cases: cell-based
GluN1/GluN2A [1] = biological target: T1, GluN1/GluN2A (Rattus norvegicus, UniProt P35439+Q00959); assay: Two-electrode voltage-clamp recordings, Xenopus laevis oocytes, GluN1/GluN2A; settings: 100 μM glutamate, 30 μM glycine; for IC50: read-out: IC50 GluN2A [95% CI]; for remaining activity at 30 µM: 30 μM test compound, mean ± SEM, read-out: I 30 μM / I control GluN2A
T1 construct: expressed in transfected cells; host or cells: Xenopus laevis oocytes (cRNA injection)
Experimental: (§1) All target compounds were evaluated for NMDAR antagonism using two-electrode voltage-clamp recordings from Xenopus laevis oocytes coexpressing recombinant GluN1 and GluN2A-D subunits (Table 1).[32],[42],[33] All analogues were assessed as either a racemic (2b, 2e–2r) or diastereomeric (2d) mixture to simplify purification and streamline in vitro analysis. […] Moreover, as illustrated by the significant loss of NMDAR activity observed with nitrile 2e, the DQP allosteric site necessitated an H-bond donor/acceptor relationship at the carboxylate position. […] The loss of NMDAR activity observed with the trifluoro analogue 2j (Table S1) reinforced the necessity for an H-bond donor/acceptor relationship to maintain allosteric binding and established that fluorine substitution alone is ineffective. […] A single methyl substitution of the amide in compound 2q improved selectivity against GluN2A and had similar potency as 2a, whereas dual methyl substitution reduced potency (2r). We expect that this is likely due to the ability of the […] of the amide to accept hydrogen bonds while the amide can readily donate a proton.
(§2) Unfertilized Xenopus laevis oocytes were obtained from Ecocyte (Austin, TX), or ovaries were purchased from Xenopus 1 (Dexter, MI) and oocytes prepared as previously described.[42],[47] Two-electrode voltage-clamp recordings were performed on oocytes expressing recombinant rat GluN1/GluN2A, GluN1/GluN2B, GluN1/GluN2C, or GluN1/GluN2D. cDNAs for rat GluN1-1a (referred to as GluN1; NCBI Reference Sequence NM_017010.2), GluN2A (NM_012573.4), GluN2B (NM_012574.1), GluN2C (NM_012575.3), and GluN2D (NM_022797.2) were provided by Dr. S. Heinemann from the Salk Institute, Dr. S. Nakanishi from Kyoto University, and Dr. P. Seeburg from the University of Heidelberg. Oocyte isolation, cRNA synthesis, and cRNA injections were performed as previously described.[32],[33],[47] Briefly, Xenopus laevis oocytes were injected with 5–10 ng of cRNA in RNase-free water with the GluN1:GluN2 ratio ranging from 1:1 to 1:5. Oocytes were incubated at 15–19 °C in Barth’s solution consisting of (in mM) 88 NaCl, 1 KCl, 2.4 NaHCO3, 10 HEPES, 0.82 MgSO4, 0.33 Ca(NO3)2, and 0.41 CaCl2 supplemented with 100 μg/mL gentamycin, 40 μg/mL streptomycin, and 50 μg/mL penicillin. Recordings were performed 2–4 days after injection with extracellular recording solution containing (in mM) 90 NaCl, 1 KCl, 10 HEPES, 0.5 BaCl2, and 0.01 EDTA at pH 7.4 adjusted with NaOH. To prevent a gradual increase in current response over the course of the experiment, some oocytes expressing GluN1/GluN2A were injected with 20–50 nL of 2–50 mM K-BAPTA. Concentration–response curves for test compounds were generated by applying a maximally effective concentration of glutamate (100 μM) and glycine (30 μM), followed by glutamate and glycine with variable concentrations of test compounds up to 30 μM. The test compounds were prepared as 20 mM stock solutions in DMSO and diluted to the final concentration in recording solution. The DMSO content was 0.05–0.5% (v/v). […] Methods for off-target analysis are given in the Supporting Information.
(§3) Confidence intervals were determined for the log(IC50). The time course of relaxation during inhibitor application or deactivation following rapid removal of NMDA or glutamate was fitted by the equation [drawing 5] 2

GluN1/GluN2A [2] = biological target: T2, GluN1/GluN2A (Rattus norvegicus, UniProt Q00959); assay: as above; settings: mean ± SEM; for I / I control GluN2A: tested at 10 μM (footnote b); for I / I control GluN2A / I3 μM/Icontrol GluN2A: 100 μM glutamate, 30 μM glycine; for I3 μM/Icontrol GluN2A: tested at 3 μM
T2 construct: expressed in transfected cells; host or cells: Xenopus laevis oocytes (cRNA injection)
Experimental: as §1, §2, §3

GluN1/GluN2D [3] = biological target: GluN1/GluN2D (Rattus norvegicus, UniProt P35439+Q62645); assay: Two-electrode voltage-clamp recordings, Xenopus laevis oocytes, GluN1/GluN2D; set-up: GluN2B (NM_012574.1), GluN2C (NM_012575.3), and GluN2D (NM_022797.2) were provided by; expressed in transfected cells; host or cells: Xenopus laevis oocytes (cRNA injection); settings: 100 μM glutamate, 30 μM glycine; for IC50: read-out: IC50 GluN2D [95% CI]; for remaining activity at 30 µM: 30 μM test compound, mean ± SEM, read-out: I 30 μM / I control GluN2D
Experimental: as §1, §2, §3

GluN1/GluN2D [4] = biological target: GluN1/GluN2D (Rattus norvegicus, UniProt Q62645); assay: as above; set-up: GluN2B (NM_012574.1), GluN2C (NM_012575.3), and GluN2D (NM_022797.2) were provided by; expressed in transfected cells; host or cells: Xenopus laevis oocytes (cRNA injection); settings: for Selectivity 2A IC50 / 2D IC50: GluN2D over GluN2A; for Selectivity 2B IC50 / 2D IC50: GluN2D over GluN2B; for I / I control GluN2D: tested at 10 μM (footnote b); for I / I control GluN2D / I3 μM/Icontrol GluN2D: 100 μM glutamate, 30 μM glycine; for I3 μM/Icontrol GluN2D: tested at 3 μM
Experimental: as §1, §2, §3

Chain of GluN1/GluN2D (Rattus norvegicus, UniProt P35439+Q62645) (Q62645 28-1323, other chains not shown): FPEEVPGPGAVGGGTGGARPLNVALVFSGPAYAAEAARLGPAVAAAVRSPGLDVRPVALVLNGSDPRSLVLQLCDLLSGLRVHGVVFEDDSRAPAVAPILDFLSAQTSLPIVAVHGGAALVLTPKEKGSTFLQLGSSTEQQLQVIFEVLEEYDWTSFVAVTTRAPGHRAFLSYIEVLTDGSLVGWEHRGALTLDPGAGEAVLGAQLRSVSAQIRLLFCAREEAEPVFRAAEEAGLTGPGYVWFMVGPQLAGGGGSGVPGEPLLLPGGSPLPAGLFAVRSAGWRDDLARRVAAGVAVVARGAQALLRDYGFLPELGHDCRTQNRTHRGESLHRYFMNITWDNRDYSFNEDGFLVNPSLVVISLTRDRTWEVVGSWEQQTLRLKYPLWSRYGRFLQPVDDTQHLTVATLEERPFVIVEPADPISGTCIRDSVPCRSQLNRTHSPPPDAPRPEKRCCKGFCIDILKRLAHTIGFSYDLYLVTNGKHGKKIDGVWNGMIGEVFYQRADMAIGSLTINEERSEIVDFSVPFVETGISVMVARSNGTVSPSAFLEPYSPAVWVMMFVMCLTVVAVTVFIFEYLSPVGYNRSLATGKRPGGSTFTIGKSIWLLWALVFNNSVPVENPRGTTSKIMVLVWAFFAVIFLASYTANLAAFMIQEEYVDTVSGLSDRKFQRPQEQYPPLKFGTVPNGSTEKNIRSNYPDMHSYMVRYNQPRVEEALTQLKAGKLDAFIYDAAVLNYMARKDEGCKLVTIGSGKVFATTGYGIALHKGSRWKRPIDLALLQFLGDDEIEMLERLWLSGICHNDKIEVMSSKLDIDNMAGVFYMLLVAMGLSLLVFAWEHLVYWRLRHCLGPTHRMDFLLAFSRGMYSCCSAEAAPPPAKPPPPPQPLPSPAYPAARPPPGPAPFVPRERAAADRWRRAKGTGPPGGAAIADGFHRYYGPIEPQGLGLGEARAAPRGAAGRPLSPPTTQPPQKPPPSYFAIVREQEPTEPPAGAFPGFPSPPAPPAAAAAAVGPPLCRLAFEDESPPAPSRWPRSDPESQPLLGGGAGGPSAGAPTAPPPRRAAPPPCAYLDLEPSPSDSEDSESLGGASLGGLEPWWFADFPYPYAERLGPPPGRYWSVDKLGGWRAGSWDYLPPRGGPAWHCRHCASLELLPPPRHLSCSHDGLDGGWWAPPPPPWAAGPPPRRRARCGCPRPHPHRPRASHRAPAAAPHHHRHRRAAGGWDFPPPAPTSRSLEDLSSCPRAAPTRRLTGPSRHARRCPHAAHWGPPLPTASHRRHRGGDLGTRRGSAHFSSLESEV
Chain of GluN1/GluN2D (Rattus norvegicus, UniProt Q62645) (Q62645 28-1323, other chains not shown): as above
T2 sequence (Q00959 23-1464, other chains not shown): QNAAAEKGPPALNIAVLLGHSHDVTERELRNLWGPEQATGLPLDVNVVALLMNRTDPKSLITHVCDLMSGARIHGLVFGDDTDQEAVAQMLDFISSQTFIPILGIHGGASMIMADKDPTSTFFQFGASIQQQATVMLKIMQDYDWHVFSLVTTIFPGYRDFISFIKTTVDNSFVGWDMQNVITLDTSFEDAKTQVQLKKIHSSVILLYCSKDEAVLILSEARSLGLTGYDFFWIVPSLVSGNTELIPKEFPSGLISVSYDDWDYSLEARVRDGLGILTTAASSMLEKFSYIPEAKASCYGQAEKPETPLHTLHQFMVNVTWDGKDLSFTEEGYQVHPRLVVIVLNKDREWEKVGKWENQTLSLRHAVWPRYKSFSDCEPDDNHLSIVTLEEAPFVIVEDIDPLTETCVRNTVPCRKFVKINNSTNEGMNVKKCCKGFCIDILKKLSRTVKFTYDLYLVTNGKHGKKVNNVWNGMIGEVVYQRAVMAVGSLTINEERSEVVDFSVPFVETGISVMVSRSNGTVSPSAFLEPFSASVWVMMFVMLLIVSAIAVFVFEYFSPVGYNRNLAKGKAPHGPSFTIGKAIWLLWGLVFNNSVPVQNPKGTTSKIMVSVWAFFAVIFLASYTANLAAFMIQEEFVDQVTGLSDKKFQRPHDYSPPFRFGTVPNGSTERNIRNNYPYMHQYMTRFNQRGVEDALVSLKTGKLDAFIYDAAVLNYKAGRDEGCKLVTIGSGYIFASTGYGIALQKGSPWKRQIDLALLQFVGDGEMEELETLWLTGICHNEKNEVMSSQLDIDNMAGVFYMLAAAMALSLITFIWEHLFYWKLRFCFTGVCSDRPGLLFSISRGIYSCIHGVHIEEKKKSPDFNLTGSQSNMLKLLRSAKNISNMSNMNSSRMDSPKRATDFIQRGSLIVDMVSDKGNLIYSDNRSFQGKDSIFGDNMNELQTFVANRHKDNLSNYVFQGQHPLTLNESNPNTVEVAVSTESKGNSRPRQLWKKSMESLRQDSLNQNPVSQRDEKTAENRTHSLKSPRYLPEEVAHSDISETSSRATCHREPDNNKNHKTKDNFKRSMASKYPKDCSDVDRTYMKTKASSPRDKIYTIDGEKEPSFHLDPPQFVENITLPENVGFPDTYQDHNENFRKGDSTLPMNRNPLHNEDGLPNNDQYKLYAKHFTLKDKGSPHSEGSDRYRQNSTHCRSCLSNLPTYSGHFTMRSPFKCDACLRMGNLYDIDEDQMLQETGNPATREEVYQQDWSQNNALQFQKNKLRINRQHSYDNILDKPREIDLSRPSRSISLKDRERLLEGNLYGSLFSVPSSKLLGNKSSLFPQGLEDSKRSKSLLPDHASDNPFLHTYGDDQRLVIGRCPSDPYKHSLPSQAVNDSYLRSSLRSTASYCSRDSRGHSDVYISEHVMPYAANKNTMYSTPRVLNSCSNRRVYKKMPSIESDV
T1 sequence (Q00959 23-1464, other chains not shown): as above

For CNC(=O)CC(F)(F)C(=O)N1N=C(c2c(-c3ccc(Cl)cc3)c3ccccc3[nH]c2=O)CC1c1ccc(Cl)cc1 (stereo not drawn) [2q], the IC50 (GluN1/GluN2A [1]) was 37 µM, the “I / I control GluN2A” value (GluN1/GluN2A [2]) was 83 ± 3.9 ^b (2,12) % and the IC50 (GluN1/GluN2D [3]) was 0.41 µM. For the same molecule, the “Selectivity 2A IC50 / 2D IC50” value (GluN1/GluN2D [4]) was 90 fold, the “Selectivity 2B IC50 / 2D IC50” value (GluN1/GluN2D [4]) was 49 fold and the “I / I control GluN2D” value (GluN1/GluN2D [4]; mean ± SEM) was 12 ± 1.5 ^b (3, 18) %.
O=C(CC(F)(F)C(=O)N1N=C(c2c(-c3ccc(Cl)cc3)c3ccccc3[nH]c2=O)CC1c1ccc(Cl)cc1)OCC1CC1 (stereo not drawn) [2n] showed a remaining activity at 30 µM (GluN1/GluN2A [1]) of 100 ± 1.3% and a remaining activity at 30 µM (GluN1/GluN2D [3]) of 92 ± 2.7%.
In the case of O=C(O)CC(F)(F)C(=O)N1N=C(c2c(-c3ccc(Cl)cc3)c3ccccc3[nH]c2=O)C[C@H]1c1ccc(Cl)cc1 [(S)-(−)-2i], the IC50 (GluN1/GluN2A [1]) is reported as 4.7 µM, the “% control GluN1/GluN2A” value (GluN1/GluN2A [2]; 1 µM compound, 100 µM glutamate, 30 µM glycine) is reported as 74 ± 2.1% and the “I3 μM/Icontrol GluN2A” value (GluN1/GluN2A [2]) is reported as 67 ± 2.0 (3, 14) %. The IC50 (GluN1/GluN2D [3]) was 0.035 µM, the “% control GluN1/GluN2D” value (GluN1/GluN2D [4]; 1 µM compound, 100 µM glutamate, 30 µM glycine, mean ± SEM) was 4.3 ± 0.73% and the “Selectivity 2A IC50 / 2D IC50” value (GluN1/GluN2D [4]) was 134 fold. The “Selectivity 2B IC50 / 2D IC50” value (GluN1/GluN2D [4]) was 457 fold, the “fold more potent than (S)-2a” value (GluN1/GluN2D [4]; abstract) was 5 fold and the “I3 μM/Icontrol GluN2D” value (GluN1/GluN2D [4]; mean ± SEM) was 3.8 ± 0.60 (4, 25) %.
Molecule CC(C)OC(=O)CC(F)(F)C(=O)N1N=C(c2c(-c3ccc(Cl)cc3)c3ccccc3[nH]c2=O)CC1c1ccc(Cl)cc1 (stereo not drawn) [2m] has a remaining activity at 30 µM (GluN1/GluN2A [1]) of 97 ± 2.3% and a remaining activity at 30 µM (GluN1/GluN2D [3]) of 92 ± 3.1%.
O=C(O)CC(F)(F)C(=O)N1N=C(c2c(-c3ccc(Cl)cc3)c3ccccc3[nH]c2=O)CC1c1ccc(Cl)cc1 (stereo not drawn) [2i] was tested, and the IC50 (GluN1/GluN2A [1]) was 5.6 µM, the “I3 μM/Icontrol GluN2A” value (GluN1/GluN2A [2]) was 61 ± 2.4% and 61 ± 2.4 ^b (2,10) % and the “I3 μM/Icontrol GluN2A” value (GluN1/GluN2A [2]; listed as racemic 2i) was 61 ± 2.4 (2, 10) %. The IC50 (GluN1/GluN2D [3]) was 0.13 µM, the “Selectivity 2A IC50 / 2D IC50” value (GluN1/GluN2D [4]) was 43 fold and the “Selectivity 2B IC50 / 2D IC50” value (GluN1/GluN2D [4]) was 123 fold. The “I3 μM/Icontrol GluN2D” value (GluN1/GluN2D [4]; mean ± SEM) was 12 ± 1.8% and 12 ± 1.8 ^b (2,16) % and the “I3 μM/Icontrol GluN2D” value (GluN1/GluN2D [4]; mean ± SEM, listed as racemic 2i) was 12 ± 1.8 (2, 16) %.
With NC(=O)CC(F)(F)C(=O)N1N=C(c2c(-c3ccc(Cl)cc3)c3ccccc3[nH]c2=O)CC1c1ccc(Cl)cc1 (stereo not drawn) [2k] the IC50 (GluN1/GluN2A [1]) was 5.8 µM, the “I3 μM/Icontrol GluN2A” value (GluN1/GluN2A [2]) was 35 ± 6.5 ^b (3,9) % and the IC50 (GluN1/GluN2D [3]) was 0.24 µM. The “Selectivity 2A IC50 / 2D IC50” value (GluN1/GluN2D [4]) was 24 fold, the “Selectivity 2B IC50 / 2D IC50” value (GluN1/GluN2D [4]) was 13 fold and the “I3 μM/Icontrol GluN2D” value (GluN1/GluN2D [4]; mean ± SEM) was 16 ± 2.3 ^b (3,17) %.
In the case of CC(C)(C)COC(=O)CC(F)(F)C(=O)N1N=C(c2c(-c3ccc(Cl)cc3)c3ccccc3[nH]c2=O)CC1c1ccc(Cl)cc1 (stereo not drawn) [2o], the “I / I control GluN2A” value (GluN1/GluN2A [2]) is reported as 97 ± 2.2% and the “I / I control GluN2D” value (GluN1/GluN2D [4]; mean ± SEM) is reported as 82 ± 0.7%.
O=C(CC(F)(F)C(=O)N1N=C(c2c(-c3ccc(Cl)cc3)c3ccccc3[nH]c2=O)CC1c1ccc(Cl)cc1)OCc1ccccc1 (stereo not drawn) [2p] showed a remaining activity at 30 µM (GluN1/GluN2A [1]) of 105 ± 0.72% and a remaining activity at 30 µM (GluN1/GluN2D [3]) of 96 ± 0.53%.
For CN(C)C(=O)CC(F)(F)C(=O)N1N=C(c2c(-c3ccc(Cl)cc3)c3ccccc3[nH]c2=O)CC1c1ccc(Cl)cc1 (stereo not drawn) [2r], the “I / I control GluN2A” value (GluN1/GluN2A [2]) was 70 ± 3.9 ^b (3,13) %, the IC50 (GluN1/GluN2D [3]) was 1.4 µM and the “I / I control GluN2D” value (GluN1/GluN2D [4]; mean ± SEM) was 19 ± 1.6 ^b (3,14) %.
CCOC(=O)CC(F)(F)C(=O)N1N=C(c2c(-c3ccc(Cl)cc3)c3ccccc3[nH]c2=O)CC1c1ccc(Cl)cc1 (stereo not drawn) [2l] showed a remaining activity at 30 µM (GluN1/GluN2A [1]) of 100 ± 3.2% and a remaining activity at 30 µM (GluN1/GluN2D [3]) of 87 ± 0.8%.
